Results: patent publication US20250388643A1, “GLUCAGON-LIKE PEPTIDE-2 COMPOSITIONS AND METHODS OF MAKING AND USING SAME” (Amunix Pharmaceuticals, Inc., priority 2011, published 2025)
Like-named read-outs stand apart in the source and are kept apart here.

How the values were obtained:
[1] = system: small intestine growth in rats; test: Intestinotrophic growth in normal rats (small intestine weight and length); type: in vivo, rat; conditions: normal Sprague-Dawley rats, SC 12 days; peptide 12.5 nmol/kg twice daily, fusion protein 25 nmol/kg once daily
Description: To determine the intestinotrophic properties of GLP2-XTEN, small intestine growth in rats was measured as a primary pharmacodynamic endpoint. […] GLP2-2G-XTEN was dosed at 25 nmol/kg once daily for 12 days. After sacrifice, a midline incision was made, the small intestines were removed, stretched to their maximum length and the length recorded. The fecal material was flushed from the lumen and the small intestinal wet weight recorded. The small intestine length and weight data were analyzed with an ANOVA model with a Tukey/Kramer post-hoc test for pairwise comparisons, with significance at p=0.05.

[2] = system: DSS-induced intestinal colitis in C57Bl/6 mice; test: Murine acute DSS-induced colitis model; type: in vivo, mouse; conditions: DSS-treated mice
Description: To determine the efficacy of GLP2-XTEN, the GLP2-2G-XTEN-AE864 fusion protein was evaluated in a mouse model of intestinal inflammatory colitis. […] A naïve, non-treated control group (group 1) was given normal drinking water for the duration of the experiment. […] Tissues were fixed in formalin and then transferred to ethanol for staining and histopathology. The anatomical data was analyzed with an ANOVA model with a Tukey/Kramer post-hoc test for pairwise comparisons, with significance at p=0.05.

[3] = system: indomethacin-induced intestinal inflammation in Wistar rats; test: Rat Crohn's Disease indomethacin-induced intestinal inflammation model, Study 1; type: in vivo
Description: To determine the efficacy of GLP2-XTEN using single dose or qd dosing, the GLP2-2G-XTEN-AE864 fusion protein was evaluated in a rat model of Crohn's Disease of indomethacin-induced intestinal inflammation in three separate studies.
Study 1: Intestinal inflammation was induced in eighty male Wistar rats (Harlan Sprague Dawley) using indomethacin administered on Days 0 and 1 of the experiment. The rats were divided into seven treatment groups for treatment according to Table 19.
All treatments were administered per the schedule starting on Day −3 of the experiment. Body weights were determined daily. Groups 3 and 5 were dosed equimolar/day. On Day 2 (24 hours post-2nd indomethacin dose), the animals were prepped for sacrifice and analysis. Thirty minutes prior to sacrifice, the rats were injected intravenously with 1 ml 1% Evans Blue dye, in order to visualize ulcers and extent of inflammation by histopathology analysis. The rats were anesthetized (SOP 1810), blood samples were removed to determine the concentration of GLP-2-2G-XTEN using the anti-XTEN/anti-GLP2 ELISA method. The rats were euthanized then necropsied and scored by gross examination of the intestines for the presence of adhesions; i.e., none=0, mild=1, moderate=2, or severe=3. The small intestines were removed and the length of each was recorded. In each small intestine, a longitudinal incision was made and the interior was examined. The degree and length of the ulcerated area was recorded as a score; i.e., none=0, few=1, multiple=2, or continuous=3. For TNFα determination, intestinal samples were thawed and homogenized in a total of 20 ml with DPBS. The supernatants were equilibrated to room temperature and assayed for TNFα by ELISA (R&D Systems, Cat. RTA00, lot 281687, exp. 7 Sep. 2011). The samples for Group 1 were assayed undiluted. The samples for Groups 2-7 were diluted 1:4. For histopathology, the small intestines were gently washed with saline to remove the fecal material and were blotted to remove excess fluid. Each small intestine was weighed then processed for histopathology examination to quantitate the degree of inflammation; i.e., 0.0%=0, 1-33%=1, 34-66%=2, 67-100%=3.

[4] = system: indomethacin-induced intestinal inflammation in Wistar rats; type: in vivo, rat
Description: Study 2: Intestinal inflammation was induced in eighty male Wistar rats (Harlan Sprague Dawley) using indomethacin administered on Days 0 and 1 of the experiment. The rats were divided into eight treatment groups for treatment according to Table 20. All treatments were administered per the schedule starting on Day-3 of the experiment. Body weights were determined daily. On Day 2 (24 hours post-2nd indomethacin dose), the animals were prepped for sacrifice and analysis. Thirty minutes prior to sacrifice, the rats were injected intravenously with 1 ml 1% Evans Blue dye, in order to visualize ulcers and extent of inflammation by histopathology analysis. The rats were anesthetized and blood samples were removed to determine the concentration of GLP-2-2G-XTEN using the anti-XTEN/anti-GLP2 ELISA method. The rats were euthanized then necropsied and scored by gross examination of the intestines for the presence of adhesions; i.e., none=0, mild=1, moderate=2, or severe=3. The small intestines were removed and the length of each was recorded. In each small intestine, a longitudinal incision was made and the interior was examined. The degree and length of the ulcerated area was recorded as a score; i.e., none=0, few=1, multiple=2, or continuous=3. The fecal material was washed away with saline and blotted to remove excess fluid and each small intestine was weighed then processed for histopathology examination to quantitate the degree of inflammation; i.e., 0.0%=0, 1-33%=1, 34-66%=2, 67-100%=3.

[5] = system: indomethacin-induced intestinal inflammation in Wistar rats; test: Rat Crohn's Disease indomethacin-induced intestinal inflammation model, Study 3; type: in vivo
Description: Study 3: A third indomethacin-induced inflammation study was performed to verify previous results and test additional dose regimens. Intestinal inflammation was induced in male Wistar rats (Harlan Sprague Dawley) using indomethacin administered on Days 0 and 1 of the experiment according to Table 21.
All treatments were administered per the schedule starting on Day-3 of the experiment. Body weights were determined daily. On Day 2 (24 hours post-2nd indomethacin dose), the animals were prepped for sacrifice and analysis. The small intestines were removed and the length of each was recorded. Quantitative histopathology was performed on a subset of samples. Rat small intestine samples consisted of a 3 cm section of proximal jejunum and a 3 cm section of mid-jejunum collected 15 cm and 30 cm from the pylorus, respectively. Samples were fixed in 10% neutral buffered formalin. Samples were trimmed into multiple sections without bias toward lesion presence or absence. These sections were placed in cassettes, embedded in paraffin, microtomed at approximately 4 microns thickness, and stained with hematoxylin and eosin (H&E). The slides were evaluated microscopically by a board certified veterinary pathologist and scored for villous height as well as infiltration/inflammation, mucosal atrophy, villi/crypt appearance, abscesses/ulceration. A 1 to 4 severity grading scale was used, where 1=minimal, 2=mild, 3=moderate, 4=marked/severe, reflecting the combination of the cellular reactions seen histopathologically. Small intestine length was analyzed with an ANOVA model with a Tukey/Kramer post-hoc test for pairwise comparisons, with significance at p=0.05. Non-parametric histology score variables were compared with the vehicle control using a Mann Whitney U test with a Bonferroni correction for the p-value to create an overall alpha of 0.05.

[6] = cited from earlier work; for terminal half-life: in humans

For `CC[C@H](C)[C@H](NC(=O)[C@H](Cc1ccccc1)NC(=O)[C@H](CC(=O)O)NC(=O)[C@H](CCCNC(=N)N)NC(=O)[C@H](C)NC(=O)[C@H](C)NC(=O)[C@H](CC(C)C)NC(=O)[C@H](CC(N)=O)NC(=O)[C@H](CC(=O)O)NC(=O)[C@H](CC(C)C)NC(=O)[C@@H](NC(=O)[C@@H](NC(=O)[C@H](CC(N)=O)NC(=O)[C@H](CCSC)NC(=O)[C@H](CCC(=O)O)NC(=O)[C@H](CC(=O)O)NC(=O)[C@H](CO)NC(=O)[C@H](Cc1ccccc1)NC(=O)[C@H](CO)NC(=O)CNC(=O)[C@H](CC(=O)O)NC(=O)CNC(=O)[C@@H](N)Cc1c[nH]cn1)[C@@H](C)O)[C@@H](C)CC)C(=O)N[C@@H](CC(N)=O)C(=O)N[C@@H](Cc1c[nH]c2ccccc12)C(=O)N[C@@H](CC(C)C)C(=O)N[C@H](C(=O)N[C@@H](CCC(N)=O)C(=O)N[C@H](C(=O)N[C@@H](CCCCN)C(=O)N[C@H](C(=O)N[C@H](C(=O)N[C@@H](CC(=O)O)C(=O)O)[C@@H](C)O)[C@@H](C)CC)[C@@H](C)O)[C@@H](C)CC` [GLP2-2G peptide, reference compound], the “increase in small intestine length” value [1] was “no significant effects”, the “increase in small intestine weight” value [1] was 24% and the “growth in the assayed tissues (colon, small intestine, stomach)” value ([2]; BID days 1-10) was “did not induce significant growth”. For the same compound, the “loss of body weight” value ([2]; SC days 1-10, peptide BID, fusion protein QD, any dose) was “neither the mice treated with GLP2-2G peptide nor any of the groups of mice treated with any dose of GLP2-2G-XTEN mice showed a reduced loss of body weight”, the small intestine weight ([3]; 0.5 mg/kg peptide, both fusion protein groups, compared to diseased control Group 2, FIG. 21C) was “significant increase” and the small intestine length ([3]; FIG. 21B) was “significant increase”. For the same compound, the “ulceration (gross pathology scoring of small intestine)” value ([3]; FIG. 21D) was “significant decreases in ulceration”, the “small intestine inflammation score” value ([3]; FIG. 21F) was “neither the GLP-2-2G peptide nor the GLP-2-2G-XTEN fusion protein treatments showed a significant effect on inflammation” and the “body weight at termination” value ([3]; compared to disease control (Group 2), FIG. 21A) was “did not have a significant increase in body weight”. The “scores of adhesions and transulceration” value ([3]; compared to diseased control (Group 2), FIG. 21E) was “significant decreases”, the “TNFα in small intestine (ELISA)” value ([3]; compared to diseased control Group 2, FIG. 21G) was “significantly decreased cytokine levels” and the “histopathology: protective effects” value ([4]; daily bid peptide, once-daily fusion protein) was “most pronounced in the ileum, but were also seen in the jejunum”. The adhesions score ([4]; once-daily fusion protein, daily bid peptide, FIG. 22B) was “reached statistically significant difference”, the small intestine length ([4]; once-daily fusion protein, daily bid peptide, vs indomethacin-treated vehicle control) was “reached statistically significant difference” and the total disease score ([4]; peptide delivered bid, fusion protein delivered qd, vs indomethacin-treated vehicle control) was “significantly improved scores”. For the same compound, the villi height ([5]; fusion protein high (total dose 125 nmol/kg) and low (total dose 75 nmol/kg), FIG. 24B) was “not significant” and the “mucosal ulceration and mixed cell infiltrate” value ([5]; three treatment groups) was “not significant”.

For `CC[C@H](C)[C@H](NC(=O)[C@H](Cc1ccccc1)NC(=O)[C@H](CC(=O)O)NC(=O)[C@H](CCCNC(=N)N)NC(=O)[C@H](C)NC(=O)[C@H](C)NC(=O)[C@H](CC(C)C)NC(=O)[C@H](CC(N)=O)NC(=O)[C@H](CC(=O)O)NC(=O)[C@H](CC(C)C)NC(=O)[C@@H](NC(=O)[C@@H](NC(=O)[C@H](CC(N)=O)NC(=O)[C@H](CCSC)NC(=O)[C@H](CCC(=O)O)NC(=O)[C@H](CC(=O)O)NC(=O)[C@H](CO)NC(=O)[C@H](Cc1ccccc1)NC(=O)[C@H](CO)NC(=O)CNC(=O)[C@H](CC(=O)O)NC(=O)CNC(=O)[C@@H](N)Cc1c[nH]cn1)[C@@H](C)O)[C@@H](C)CC)C(=O)N[C@@H](CC(N)=O)C(=O)N[C@@H](Cc1c[nH]c2ccccc12)C(=O)N[C@@H](CC(C)C)C(=O)N[C@H](C(=O)N[C@@H](CCC(N)=O)C(=O)N[C@H](C(=O)N[C@@H](CCCCN)C(=O)N[C@H](C(=O)N[C@H](C(=O)N[C@@H](CC(=O)O)C(=O)O)[C@@H](C)O)[C@@H](C)CC)[C@@H](C)O)[C@@H](C)CC` [teduglutide], the terminal half-life ([6]; reported (Marier 2008)) is listed as 192 min, the terminal half-life ([6]; reported (Marier 2010)) is listed as 54 to 138 min and the half life ([6]; reported (Marier 2010)) is listed as 54 to 138 min.

For “native GLP-2: human glucagon-like peptide-2, 33 amino acids, HADGSFSDEMNTILDNLAARDFINWLIQTKITD (SEQ ID NO: 2)”, the “half-life (terminal half-life in humans)” value ([6]; human, in vivo) is given as “approximately seven minutes”.
